Measured values taken from PMC9629815, “MK256 is a novel CDK8 inhibitor with potent antitumor activity in AML through downregulation of the STAT pathway” (Oncotarget, 2022).

Columns and labels:
[1] = test system: CD34+/CD38- AML TEX cells; experiment: Flow cytometry of differentiation/maturation markers; assay type: cell-based, human
Protocol: […] novel human leukemic cell line (TEX) cells were plated on 100 mm culture dishes at 5 × 10^5 per well, starved with medium containing IMDM supplemented with 1.5%FCS, 2 ng/ml SCF, and 0.2 ng/ml IL-3 (Amgen, Thousand Oaks, CA, USA) overnight. […] Media with tested drugs was replaced on the third day. Following the 6-day treatments, cultures were washed once in Sort buffer (PBS + 2% FBS + 2 mM EDTA), and resuspended to a final concentration of 50 million cells/mL into a 96-well V-shaped plate. Cells were subsequently incubated with Zombie Aqua Fixable Viability Dye (Thermo), washed with Sort buffer, and incubated with Human FcX (BioLegend) to prevent non-specific antibody binding. Following FcX incubation, cells were washed with Sort buffer and incubated with cell surface antibody mix diluted in the BV stain buffer (BD Biosciences) following manufacturer instructions for 30 mins on ice in the dark. Cells were then washed with 100 mL Sort buffer and permeabilized in fresh Fix/Perm solution (Foxp3 Transcription Factor Staining Buffer from eBioscience) following the manufacturer’s instructions. Cell were subsequently incubated in intracellular stain mix in Perm Buffer (1 mL 10× Perm Buffer (eBiosceince) + 8.8 mL dH2O + 2% FCS) for 30 mins on ice in dark. Isotype controls were stained with mouse IgG conjugated to FITC, PE, PerCP-Cy5.5, PE-Cy7, APC, and Alexa Fluor™ 700. Antibodies used to stain cells were FITC-conjugated anti-CD93, PE-conjugated anti-CD96, PerCP-Cy5.5-conjugated anti-CD38, PE-Cy7-conjugated anti CD-34, APC-conjugated anti-CD117, and Alexa Fluor™ 700-conjugated LIVE/DEAD (Invitrogen). Stained samples were resuspended in Perm Buffer and run on a FACSAriaII Flow Cytometer (BD Biosciences). Data were analyzed in FACSDiva (BD Biosciences) and FlowJo (Treestar). To determine the absolute numbers of cells in samples analyzed by FACS, AccuCount beads (Spherotech) were added to stained samples prior to each FACS run per manufacturer’s instructions, and absolute cell counts were calculated based on the known number of beads added. In order to cellularly differentiate apoptosis in AML cells, MOLM14, as a result of synergetic treatments of MK256 combined with ABT199, we used Dead Cell Apoptosis Kits with Annexin V (Invitrogen). MOLM14 cells were plated on a 96-well V-shaped plate at 5x10^5 per well, starved with medium containing 99% RPMI 1640, 1% FBS, and 1X Antibiotic-Antimycotic (Invitrogen). MK256 were added to final concentrations of 13.7 nM, 41.2 nM, 123.5 nM, 370.4 nM, […] on each column, while ABT199 was at final concentrations of 0.2 nM, 0.5 nM, 4.1 nM, 12.3 nM, 37.0 nM on each row. Following 72-hr retreatment, cultures were washed once in Sort buffer (PBS + 2% FBS + 2 mM EDTA) and resuspended to a final concentration of 10^4 cells/well into a 96-well V-shaped plate. Cells were subsequently incubated with Alex Fluor™ 488 annexin V and PI for Flow Cytometry following manufacturer’s instructions.

[2] = MDCK-MDR1 permeability assay; assay type: in vitro ADME; conditions: dog, MDCK-MDR1
Protocol: (§1) MDCK-MDR1 cells were plated into 96-well Millipore Millicell-96 plates at 7,500 cells/75 μL/well and incubated for three days at 37°C with 5% CO2. Cells were washed with Hank’s Balanced Salt Solution (HBSS) with 5 mM HEPES for 30 minutes before the experiment began. MK256 was prepared by diluting DMSO stock into HBSS buffer, resulting in a final DMSO concentration of 0.1%. Prior to the experiment, cell monolayer integrity was verified by […] electrical resistance (TEER). The transport experiment was initiated by adding MK256 to the apical (75 μL) or basal (250 μL) side. Transport plates were incubated at 37°C in a humidified incubator with 5% CO2. Samples were taken from the donor and acceptor compartments after one hour and analyzed by liquid chromatography with tandem mass spectrometry (LC/MS/MS). Digoxin was used as reference control. Apparent permeability (Papp) values were calculated using the following equation: Papp = (dQ/dt)/A/C0, where dQ/dt is the initial rate of amount of test compound transported across the cell monolayer, A is the surface area of the filter membrane, and C0 is the initial concentration of the test compound, calculated for each direction using a 4-point calibration curve by LC/MS/MS. Net flux ratio between the two directional transports was calculated by the following equation: Ratio = Papp, B-A/Papp, A-B, where Papp, B-A and Papp, A-B represent the apparent permeability of test compound from the basal-to-apical and apical-to-basal side of the cellular monolayer, respectively. Recovery was calculated based on the compound concentration at the end of the experiment, compared to that at the beginning of the experiment, adjusted for volumes.

[3] = test system: MDCK-MDR1 cells; experiment: MDCK-MDR1 permeability assay; assay type: in vitro ADME; conditions: 5 μM
Protocol: as §1

[4] = test system: MDR1; experiment: MDCK-MDR1 permeability assay; assay type: in vitro ADME; conditions: dog, MDCK-MDR1, read-out: Efflux Ratio (B-A/A-B)
Protocol: as §1

## Nc1nccc2c(Br)cc3cc(C(=O)O)ccc3c12 [MK256]
[1]; 50 nM
  differentiation of TEX cells: slightly induced the differentiation
[1]; 50 nM, day 6
  decrease of CD93 relative to control: 6.5%
  increase of CD117 population relative to control: 16.5%
  reduction in CD34 compared to control cells: 13%
[1]; 500 nM
  differentiation of TEX cells: much more effective
[1]; 500 nM, day 6
  decrease of CD93 relative to control: approximately 30%
  increase of CD117 population relative to control: 8.6%
  reduction in CD34 compared to control cells: 28%
[1]; day 6
  expression of CD96 with or without treatment: no difference
[1]; treated vs control (60% CD38-)
  reduction of CD38 negativity: approximately 2 fold
[2]
  Papp A→B at 1 h, 5 μM: 57 ×10⁻⁶ cm/s
  Papp B→A at 1 h, 5 μM: 14 ×10⁻⁶ cm/s
[3]
  Recover rate (%): 96%
[4]
  efflux ratio at 1 h, 5 µM: 0.2
